Data published in patent US5008386A, “Methylated cyclodextrin type compounds and process for preparing same” (Chinoin Gyogyszer es Vegyeszeti Termekek Gyara R.T., priority 1987, dated 1991).
≈ marks a conversion by molar mass, not a printed value. Where “and” joins values, the source holds several entries; their conditions need not be identical. Identical values can stand only once. Like-named read-outs stand apart in the source and are kept apart here.

What was measured:
in vitro = type: cell-based, human; conditions: human, erythrocytes, pH 7.4
Description: (§1) Solutions containing the test substances in 10 mM concentration were prepared in a 10 mM phosphate buffer at pH 7.4. The commercially available α-, β- and γ-CD products manufactured by Chinoin Chemical and Pharmaceutical Works Ltd. (Budapest, Hungary) were used.
(§2) DIMEB and TRIMEB, i.e. heptakis(2,6-di-O-methyl)-β-CD and heptakis(2,3,6-tri-O-methyl)-β-CD, respectively were prepared by the partial or total methylation of β-CD as described previously.
(§3) Fresh human blood (taken from healthy donors being under no medicinal treatment) treated by citrate as anticoagulant was centrifuged at 2000-3000× g for 10 minutes, then the supernatant was decanted, the eryhtrocytes were suspended in 5 ml of 10 mM isotonic phosphate buffer each and again centrifuged at 2000-3000× g for 10 minutes. After repeating twice this operation, the resulting erythrocytes were suspended in isotonic phosphate buffer to obtain a haematocrite volume of about 10%. This suspension (which could be stored in a refrigerator at about 4° C. for at most 48 hours) was used in further experiments.
(§4) 0.4 ml of erythrocyte suspension was added to a test solution of 4 ml total volume containing the tested CD-s and derivatives in various concentrations, then the mixture was incubated at 37° C. for 30 minutes. The mixture of 4 ml isotonic phosphate buffer and 0.4 ml erythrocyte suspension was used as blank trial (which was treated similarly to the samples).
(§5) After 30 minutes, the suspensions being present in the centrifuge tubes were centrifuged at 250-500× g for 10 minutes. (It was observed that no transparent supernatant, useful for spectrophotometric determination was obtained when the centrifuging was carried out for a shorter time.) After 10 minutes, the supernatants were drained off and their extinction was photometrically determined at 543 nm against a blank solution. In order to give the percentage of haemolysis, the extinction measured after a complete haemolysis had to be determined. This value was obtained in such a way that 0.4 ml of erythrocyte suspension was added to 4 ml of distilled water, then incubation and centrifuging were carried out in the same manner as described for the samples. The extinction of the solution thus obtained gave the 100% value of the haemolysis; when relating the measured extinctions of the samples to the 100% value, the extent of the haemolysis was obtained as a relative percentage.

human erythrocytes [1] = experiment: in vitro; type: cell-based
Description: as §1, §2, §3, §4, §5

human erythrocytes [2] = conditions: cited from earlier work
[3] = Solubility-increasing effect (UV spectrophotometry, 22 °C, 18 hours stirring)
Description: Therefore comparative examinations concerning the solubility-increasing effect were performed with model guest-molecules containing a basic group. (The measurements were carried out by UV spectrophotometry at 22° C. after stirring for 18 hours).

[4] = human, erythrocytes, 0.5 h, pH 7.4
[5] = 37° C., pH 7,4, 10 mmoles isotonic phosphate buffer
[6] = 2.5% SUMEB vs 2.5% DIMEB solution, * UV maximum shifted (Sensit base)

Row | Molecule | HC50 at 0.5 h (in vitro) | MNTC at 0.5 h (in vitro) | SUMEB / DIMEB (ratio of solubilities) [3, 6] | solubility at 18 h ([3]; 2.5% dimeb solution) | solubility at 18 h ([3]; 2.5% sumeb solution) | also measured
1 | COC[C@H]1O[C@@H]2O[C@H]3[C@H](O)[C@@H](OC)[C@@H](O[C@H]4[C@H](O)[C@@H](OC)[C@@H](O[C@H]5[C@H](O)[C@@H](OC)[C@@H](O[C@H]6[C@H](O)[C@@H](OC)[C@@H](O[C@H]7[C@H](O)[C@@H](OC)[C@@H](O[C@H]8[C@H](O)[C@@H](OC)[C@@H](O[C@H]1[C@H](O)[C@H]2OC)O[C@@H]8COC)O[C@@H]7COC)O[C@@H]6COC)O[C@@H]5COC)O[C@@H]4COC)O[C@@H]3COC [DIMEB, heptakis(2,6-di-O-methyl)-β-CD] | 1 mM and 1440 µg/mL | 220 µM and 300 µg/mL |  |  |  | concentration giving the same percentage of haemolysis, relative to β-CD (human erythrocytes [1]): one sixth
2 | OC[C@H]1O[C@@H]2O[C@H]3[C@H](O)[C@@H](O)[C@@H](O[C@H]4[C@H](O)[C@@H](O)[C@@H](O[C@H]5[C@H](O)[C@@H](O)[C@@H](O[C@H]6[C@H](O)[C@@H](O)[C@@H](O[C@H]7[C@H](O)[C@@H](O)[C@@H](O[C@H]1[C@H](O)[C@H]2O)O[C@@H]7CO)O[C@@H]6CO)O[C@@H]5CO)O[C@@H]4CO)O[C@@H]3CO [α-CD] | 12 mM and 11700 µg/mL | 6 mM and 5800 µg/mL |  |  |  | low concentration protecting human erythrocytes against heat-induced or osmotic haemolysis (human erythrocytes [2]): 5 mmol; concentration at (and above) which haemolysis is induced (human erythrocytes [2]; pH 7): 6 mmol; Haemolysis values, measured (human erythrocytes [1]; [4]): 4.97%
3 | OC[C@H]1O[C@@H]2O[C@H]3[C@H](O)[C@@H](O)[C@@H](O[C@H]4[C@H](O)[C@@H](O)[C@@H](O[C@H]5[C@H](O)[C@@H](O)[C@@H](O[C@H]6[C@H](O)[C@@H](O)[C@@H](O[C@H]7[C@H](O)[C@@H](O)[C@@H](O[C@H]8[C@H](O)[C@@H](O)[C@@H](O[C@H]1[C@H](O)[C@H]2O)O[C@@H]8CO)O[C@@H]7CO)O[C@@H]6CO)O[C@@H]5CO)O[C@@H]4CO)O[C@@H]3CO [β-CD, β-cyclodextrin] | 6 mM and 6800 µg/mL | 1.6 mM and 1800 µg/mL |  |  |  | concentration at (and above) which haemolysis is induced (human erythrocytes [2]; [5]): 3 mmol
4 | CC(Cc1ccccc1)NCCC(c1ccccc1)c1ccccc1 (racemic) [± Prenylamine base, Prenylamine] |  |  | 3.75 | 2000 µg/mL (≈ 6.07 mM) | 7500 µg/mL (≈ 22.8 mM) | solubility at 18 h ([3]; water): 310 µg/mL (≈ 0.941 mM)
5 | c1ccc(Nc2ccccc2)cc1 [Diphenylamine] |  |  | 0.72 | 520 µg/mL (≈ 3.07 mM) | 410 µg/mL (≈ 2.42 mM) | 
6 | CC(C)CCC[C@@H](C)[C@H]1CC[C@H]2[C@@H]3CC=C4C[C@@H](O)CC[C@]4(C)[C@H]3CC[C@]12C [Cholesterol] |  |  | 0.37 | 1710 µg/mL (≈ 4.42 mM) | 640 µg/mL (≈ 1.66 mM) | solubility at 18 h ([3]; water): 100 µg/mL (≈ 0.259 mM)
7 | CC(NCCC(c1ccccc1)c1ccccc1)c1ccccc1 (racemic) [± Sensit base] |  |  |  | 5500 µg/mL (≈ 17.4 mM) | 8500 µg/mL (≈ 26.9 mM) | SUMEB / DIMEB (ratio of solubilities) [3]: 1.53; solubility at 18 h ([3]; water): 2100 µg/mL (≈ 6.66 mM)
8 | trideca-O-methyl-monosuccinyl-β-cyclodextrin [SUMEB] |  |  |  |  |  | haemolytic effect, in words (human erythrocytes [1]): significantly lower in comparison to the haemolytic effect of the mother compound; concentration at which no haemolytic effect was observed (human erythrocytes [1]; [4]): 300 µg/mL; concentration with a haemolysis value of 50% (human erythrocytes [1]; [4]): 6500 µg/mL
9 | C[C@@H]([C@H](O)c1ccccc1)N(C)C [- N-Methylephedrine base, N-Methylephedrine] |  |  | 1.2 | 18500 µg/mL (≈ 103 mM) | 22000 µg/mL (≈ 123 mM) | 
10 | COC[C@H]1O[C@@H]2O[C@H]3[C@H](OC)[C@@H](OC)[C@@H](O[C@H]4[C@H](OC)[C@@H](OC)[C@@H](O[C@H]5[C@H](OC)[C@@H](OC)[C@@H](O[C@H]6[C@H](OC)[C@@H](OC)[C@@H](O[C@H]7[C@H](OC)[C@@H](OC)[C@@H](O[C@H]8[C@H](OC)[C@@H](OC)[C@@H](O[C@H]1[C@H](OC)[C@H]2OC)O[C@@H]8COC)O[C@@H]7COC)O[C@@H]6COC)O[C@@H]5COC)O[C@@H]4COC)O[C@@H]3COC [TRIMEB, heptakis(2,3,6-tri-O-methyl)-β-CD] | 4 mM and 5700 µg/mL | 1.4 mM and 2000 µg/mL |  |  |  | haemolytic effect, in words (human erythrocytes [1]): also higher than that of the mother compound
11 | trideca-O-methyl-monosuccinyl-β-cyclodextrin methyl ester [Succinyl-DIMEB methyl ester] |  |  |  |  |  | haemolytic effect, in words (human erythrocytes [1]): not significantly different from the haemolytic effect of the trideca-O-methyl-monosuccinyl-β-CD
12 | OC[C@H]1O[C@@H]2O[C@H]3[C@H](O)[C@@H](O)[C@@H](O[C@H]4[C@H](O)[C@@H](O)[C@@H](O[C@H]5[C@H](O)[C@@H](O)[C@@H](O[C@H]6[C@H](O)[C@@H](O)[C@@H](O[C@H]7[C@H](O)[C@@H](O)[C@@H](O[C@H]8[C@H](O)[C@@H](O)[C@@H](O[C@H]9[C@H](O)[C@@H](O)[C@@H](O[C@H]1[C@H](O)[C@H]2O)O[C@@H]9CO)O[C@@H]8CO)O[C@@H]7CO)O[C@@H]6CO)O[C@@H]5CO)O[C@@H]4CO)O[C@@H]3CO [γ-CD] | 24 mM and 32000 µg/mL | ≤ 9 mM and ≤ 11000 µg/mL |  |  |  | concentration at (and above) which haemolysis is induced (human erythrocytes [2]; [5]): 16 mmol; low concentration protecting human erythrocytes against heat-induced or osmotic haemolysis (human erythrocytes [2]): 10 mmol
